Measured values published in ChEMBL document CHEMBL3880387, “Bis aromatic compounds for use as LTC4 synthase inhibitors” (2013).
Converted amounts (≈) assume the structure as drawn.

Assay: Thermodynamic solubility of the compound in monobasic potassium phosphate buffer at pH 7.4 after 24 hrs by LC-MS/MS analysis
Type: physicochemical
Details: read-out: Therm_solubility

solubility thermodynamic at 24 h: 7 µM (≈ 3.87 µg/mL)
Compound: CN(c1ccc(Cl)cc1)c1ccc(C(=O)c2ccc(C(=O)C3(c4ccccc4)CCCCC3)c(C(=O)O)c2)nc1
